# Molecular target: T1, hNav1.7 and the β1 subunit (Homo sapiens, UniProt Q15858)
# T1 construct: expressed in transfected cells
# Assay: Tritiated compound competitive binding to membranes from cells heterologously expressing hNav1.7 and the β1 subunit (LBA)
# Conditions: competition with 100 pM [3H]compound, 18 h, room temperature; IC50 by 4 parameter logistic model
# Procedure, shortened: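 Membranes were incubated 18 h at room temperature with 100 pM [3H]-labelled NaV1.7 inhibitor and increasing test compound in 100 mM NaCl, 20 mM Tris HCl, pH 7.4. Bound radioligand was filtered on PEI-soaked GF/C, washed, and counted by scintillation. IC50 from a 4-parameter logistic fit of % inhibition.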
# T1 sequence (Q15858 whole entry): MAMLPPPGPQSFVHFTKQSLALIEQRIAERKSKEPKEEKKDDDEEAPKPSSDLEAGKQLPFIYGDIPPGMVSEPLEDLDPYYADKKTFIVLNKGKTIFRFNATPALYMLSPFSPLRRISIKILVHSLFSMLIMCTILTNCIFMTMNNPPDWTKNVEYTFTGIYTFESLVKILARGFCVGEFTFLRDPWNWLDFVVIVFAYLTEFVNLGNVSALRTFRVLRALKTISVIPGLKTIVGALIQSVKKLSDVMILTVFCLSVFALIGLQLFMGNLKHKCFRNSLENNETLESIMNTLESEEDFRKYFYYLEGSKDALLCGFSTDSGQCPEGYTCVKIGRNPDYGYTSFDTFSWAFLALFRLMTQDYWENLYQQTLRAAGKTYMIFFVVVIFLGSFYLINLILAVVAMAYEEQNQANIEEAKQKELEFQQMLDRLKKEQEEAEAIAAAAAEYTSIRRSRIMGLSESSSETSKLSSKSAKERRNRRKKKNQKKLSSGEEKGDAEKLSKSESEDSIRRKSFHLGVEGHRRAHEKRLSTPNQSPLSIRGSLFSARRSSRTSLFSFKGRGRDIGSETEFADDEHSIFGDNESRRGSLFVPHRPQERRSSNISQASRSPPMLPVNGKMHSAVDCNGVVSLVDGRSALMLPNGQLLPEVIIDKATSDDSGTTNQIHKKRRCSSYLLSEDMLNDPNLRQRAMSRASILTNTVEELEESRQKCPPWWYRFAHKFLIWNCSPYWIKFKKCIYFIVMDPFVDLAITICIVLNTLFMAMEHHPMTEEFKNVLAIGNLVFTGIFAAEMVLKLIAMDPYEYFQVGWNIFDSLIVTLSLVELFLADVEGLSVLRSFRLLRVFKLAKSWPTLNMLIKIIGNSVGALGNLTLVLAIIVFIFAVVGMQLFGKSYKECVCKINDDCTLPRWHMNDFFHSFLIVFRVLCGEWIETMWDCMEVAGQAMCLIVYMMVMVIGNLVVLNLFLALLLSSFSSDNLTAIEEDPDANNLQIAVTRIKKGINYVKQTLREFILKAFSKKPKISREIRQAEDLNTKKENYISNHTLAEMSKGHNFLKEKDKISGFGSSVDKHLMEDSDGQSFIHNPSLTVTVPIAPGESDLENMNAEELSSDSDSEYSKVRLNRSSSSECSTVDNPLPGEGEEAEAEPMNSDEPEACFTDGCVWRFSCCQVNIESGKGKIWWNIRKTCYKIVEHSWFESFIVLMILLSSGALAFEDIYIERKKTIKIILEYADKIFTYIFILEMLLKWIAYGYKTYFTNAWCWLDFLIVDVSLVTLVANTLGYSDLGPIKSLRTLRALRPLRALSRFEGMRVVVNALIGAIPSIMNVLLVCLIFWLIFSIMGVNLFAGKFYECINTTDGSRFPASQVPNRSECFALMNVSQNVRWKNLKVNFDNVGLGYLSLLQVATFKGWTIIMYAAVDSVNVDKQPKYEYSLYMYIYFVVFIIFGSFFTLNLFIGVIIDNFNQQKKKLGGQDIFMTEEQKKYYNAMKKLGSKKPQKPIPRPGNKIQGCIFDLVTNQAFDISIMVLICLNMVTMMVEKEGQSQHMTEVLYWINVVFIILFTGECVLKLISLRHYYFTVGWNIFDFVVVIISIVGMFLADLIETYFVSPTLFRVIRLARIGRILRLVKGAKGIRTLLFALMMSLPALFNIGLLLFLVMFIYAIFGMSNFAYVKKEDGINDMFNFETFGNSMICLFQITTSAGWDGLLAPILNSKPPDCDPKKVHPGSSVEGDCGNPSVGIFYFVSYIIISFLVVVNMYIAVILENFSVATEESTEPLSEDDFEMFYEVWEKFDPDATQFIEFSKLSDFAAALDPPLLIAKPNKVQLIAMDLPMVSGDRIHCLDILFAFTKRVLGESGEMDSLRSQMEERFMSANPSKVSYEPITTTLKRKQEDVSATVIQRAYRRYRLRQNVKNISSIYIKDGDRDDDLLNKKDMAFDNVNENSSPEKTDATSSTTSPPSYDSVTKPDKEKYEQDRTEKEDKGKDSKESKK
# T1 sequence (Q07699 19-218 partner): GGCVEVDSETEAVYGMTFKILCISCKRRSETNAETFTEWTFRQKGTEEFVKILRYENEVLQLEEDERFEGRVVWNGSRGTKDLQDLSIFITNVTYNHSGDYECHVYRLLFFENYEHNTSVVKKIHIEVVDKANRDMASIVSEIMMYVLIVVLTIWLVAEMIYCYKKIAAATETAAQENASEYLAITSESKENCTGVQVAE
row,Nav1.7 (LBA),Compound
1,0.735 µM,"O=S(=O)(Nc1ncns1)c1ccc2c(c1)OCC[C@H]2N1CC[C@@H](CF)C[C@H]1c1ccc(F)cc1 [Example 181, (R)-4-((2S,4R)-4-(fluoromethyl)-2-(4-fluorophenyl)piperidin-1-yl)-N-(1,2,4-thiadiazol-5-yl)chroman-7-sulfonamide]"
2,2.18 µM,"O=S(=O)(Nc1ncns1)c1ccc2c(c1)OCC[C@H]2N1CC[C@@H](C(F)F)C[C@H]1c1ccc(F)cc1 [Example 185, (R)-4-((2S,4R)-4-(difluoromethyl)-2-(4-fluorophenyl)piperidin-1-yl)-N-(1,2,4-thiadiazol-5-yl)chroman-7-sulfonamide]"
3,0.11 µM,"O=S(=O)(Nc1nccs1)c1cc2c(cc1F)[C@H](N1CC[C@@H](C(F)(F)F)C[C@H]1c1cn[nH]c1)CCO2 [Example 199, (R)-4-((2S,4R)-2-(1H-pyrazol-4-yl)-4-(trifluoromethyl)piperidin-1-yl)-6-fluoro-N-(thiazol-2-yl)chroman-7-sulfonamide]"
4,0.132 µM,"O=S(=O)(Nc1ncns1)c1ccc2c(c1)OCC[C@H]2N1CC[C@H](CF)C[C@@H]1c1ccc(F)cc1 [Example 184, (R)-4-((2R,4S)-4-(fluoromethyl)-2-(4-fluorophenyl)piperidin-1-yl)-N-(1,2,4-thiadiazol-5-yl)chroman-7-sulfonamide]"
5,0.0173 µM,"O=S(=O)(Nc1ncns1)c1ccc2c(c1)OCC[C@@H]2N1CCC(F)(F)C[C@@H]1c1ccccc1 (single isomer, unassigned) [Example 142]"
6,0.131 µM,"O=S(=O)(Nc1ncns1)c1ccc2c(c1)OCC[C@H]2N1CC[C@H](C(F)F)C[C@@H]1c1ccc(F)cc1 [Example 188, (R)-4-((2R,4S)-4-(difluoromethyl)-2-(4-fluorophenyl)piperidin-1-yl)-N-(1,2,4-thiadiazol-5-yl)chroman-7-sulfonamide]"
7,0.469 µM,"CC(C)[C@@H]1CCN([C@@H]2CCOc3cc(S(=O)(=O)Nc4ncns4)ccc32)[C@H](c2ccccc2)C1 (single isomer, unassigned) [Example 128]"
8,8.6 µM,"CC1(C#N)CCN([C@H]2CCOc3cc(S(=O)(=O)Nc4ncns4)ccc32)CC1 [Example 149, (S)-4-(4-cyano-4-methylpiperidin-1-yl)-N-(1,2,4-thiadiazol-5-yl)chromane-7-sulfonamide]"
9,5.36 µM,"N#CC1CCN([C@H]2CCOc3cc(S(=O)(=O)Nc4ncns4)ccc32)CC1 [Example 147, (S)-4-(4-cyanopiperidine-1-yl)-N-(1,2,4-thiadiazol-5-yl)chromane-7-sulfonamide]"
10,3 µM,"CS(=O)(=O)[C@@H]1CCN([C@@H]2CCOc3cc(S(=O)(=O)Nc4ncns4)ccc32)[C@H](c2ccc(F)cc2)C1 [Example 162, (R)-4-((2S,4R)-2-(4-fluorophenyl)-4-(methylsulfonyl)piperidin-1-yl)-N-(1,2,4-thiadiazol-5-yl)chroman-7-sulfonamide]"
11,0.00824 µM,"Cc1cc([C@@H]2C[C@H](C(F)(F)F)CCN2[C@H]2CCOc3cc(S(=O)(=O)Nc4ncns4)ccc32)n(C)n1 [Example 203, (S)-4-((2S,4R)-2-(1,3-dimethyl-1H-pyrazol-5-yl)-4-(trifluoromethyl)piperidin-1-yl)-N-(1,2,4-thiadiazol-5-yl)chroman-7-sulfonamide]"
12,1.02 µM,"N#C[C@@H]1CCN([C@@H]2CCOc3cc(S(=O)(=O)Nc4ncns4)ccc32)[C@H](c2ccc(F)cc2)C1 [Example 178, (R)-4-((2S,4R)-4-cyano-2-(4-fluorophenyl)piperidin-1-yl)-N-(1,2,4-thiadiazol-5-yl)chroman-7-sulfonamide]"

# More lines, now with the values behind:
row,Compound,Nav1.7 (LBA)
1,"O=S(=O)(Nc1ncns1)c1ccc(CN2CCC[C@@H]2c2ccccc2)c(Cl)c1 [Example 49, (R)-3-chloro-4-((2-phenylpyrrolidin-1-yl)methyl)-N-(1,2,4-thiadiazol-5-yl)benzenesulfonamide]",6.81 µM
2,"O=S(=O)(Nc1ncns1)c1ccc2c(c1)OCC[C@H]2N1CCCC[C@H]1c1ccc(F)cc1 (single isomer, unassigned) [Example 77]",0.198 µM
3,"O=S(=O)(Nc1ncns1)c1ccc(CN2CCC[C@H]2c2ccccc2)c(Cl)c1 [Example 48, (S)-3-chloro-4-((2-phenylpyrrolidin-1-yl)methyl)-N-(1,2,4-thiadiazol-5-yl)benzenesulfonamide]",1.48 µM
4,"O=S(=O)(Nc1ncns1)c1ccc2c(c1)OCC[C@H]2N1CCCC[C@@H]1c1ccc(F)cc1 (single isomer, unassigned) [Example 79]",0.0186 µM
5,"O=S(=O)(Nc1ncns1)c1cc(F)c(CN2CCCC[C@H]2c2ccn[nH]2)cc1F (single isomer, unassigned) [Example 27]",0.118 µM
6,"O=S(=O)(Nc1ncns1)c1cc(F)c(CN2CCC(F)(F)C[C@H]2c2ccccc2)cc1F (single isomer, unassigned) [Example 32]",0.18 µM
7,"O=S(=O)(Nc1ncns1)c1ccc2c(c1)OCC[C@H]2N1CCc2ccccc2[C@H]1c1ccccc1 (single isomer, unassigned) [Example 81]",0.435 µM
8,"CN(Cc1ccccc1)[C@H]1CCOc2cc(S(=O)(=O)Nc3ncns3)c(F)cc21 [Example 89, (S)-4-(benzyl(methyl)amino)-6-fluoro-N-(1,2,4-thiadiazol-5-yl)chromane-7-sulfonamide]",0.096 µM
9,"O=S(=O)(Nc1ncns1)c1cc2c(cc1F)[C@@H](N1CCCC[C@H]1c1ccccc1)CCO2 (single isomer, unassigned) [Example 84]",0.00991 µM
10,"O=S(=O)(Nc1cscn1)c1cc2c(cc1F)[C@@H](N1CCCC[C@H]1c1ccccc1)CCO2 (single isomer, unassigned) [Example 99]",0.091 µM
11,"O=S(=O)(Nc1ncns1)c1ccc2c(c1)CCC[C@@H]2N1CCCC[C@@H]1c1ccccc1 (single isomer, unassigned) [Example 51]",0.482 µM
12,"C[C@H](c1cc(F)c(S(=O)(=O)Nc2ncns2)cc1F)N1CCCC[C@H]1c1ccccc1 (single isomer, unassigned) [Example 18]",1.38 µM
13,"O=S(=O)(Nc1nccs1)c1ccc2c(c1)OCC[C@@H]2N1CCCC[C@@H]1c1ccc(F)cc1 (single isomer, unassigned) [Example 100]",0.0221 µM
14,"Cn1nccc1[C@H]1C[C@@H](C(F)(F)F)CCN1[C@@H]1CCOc2cc(S(=O)(=O)Nc3ncns3)ccc21 (single isomer, unassigned) [Example 126]",0.313 µM
15,"O=S(=O)(Nc1ncns1)c1ccc(CN2CCCC[C@H]2c2ccccc2)c(Cl)c1 [Example 65, (S)-3-chloro-4-((2-phenylpiperidin-1-yl)methyl)-N-(1,2,4-thiadiazol-5-yl)benzenesulfonamide]",5.51 µM
16,"O=S(=O)(Nc1cccc(F)n1)c1ccc(CN2CCCC[C@H]2c2ccccc2)c(Cl)c1 [Example 73, (S)-3-chloro-N-(6-fluoropyridin-2-yl)-4-((2-phenylpiperidin-1-yl)methyl)-benzenesulfonamide]",6.8 µM
17,"O=S(=O)(Nc1ncns1)c1ccc2c(c1)OCC[C@H]2N1CCCC[C@H]1c1cccnc1 (single isomer, unassigned) [Example 122]",0.0125 µM

# Source: patent US10787446B2 (GENENTECH, INC., priority 2015, dated 2020)
